# Source: US6774126B2, “Pyrrolo[1,2-b][1,2,4]oxadiazine diones useful as nitric oxide synthase inhibitors” (Pharmacia Corporation, priority 1998, dated 2004)
# Test system: plasma nitrites induced by endotoxin (LPS)
# Experiment: In Vivo Assay: Low Dose LPS, plasma nitrites in endotoxin-treated mice
# Settings: LPS 12.5 mg/kg i.p., plasma nitrites 5 hours post-treatment
# Description: In Vivo Assay Mice were treated with an intraperitoneal injection of 12.5 mg/kg of endotoxin (LPS) with or without oral administration of the nitric oxide synthase inhibitors. Plasma nitrites were measured 5 hours post-treatment.
SMILES,"Low Dose LPS in vivo, inhibition of rise in plasma nitrites (compound 3 mg/kg p.o.) [% inh.]","Low Dose LPS in vivo, inhibition of rise in plasma nitrites (compound 10 mg/kg p.o.) [% inh.]","Low Dose LPS in vivo, inhibition of rise in plasma nitrites (compound 1 mg/kg p.o.) [% inh.]"
"NCCC1CCCCc2noc(=O)n21 (stereo not shown) [Example 3, 5-(2-aminoethyl)-6,7,8,9-tetrahydro-3H,5H-[1,2,4]oxadiazolo[4,3-a]azepin-3-one, mono(trifluoroacetate)]",33,64,–
"O=c1onc2n1CCCCC2 [Example 1, 6,7,8,9-tetrahydro-3H,5H-[1,2,4]oxadiazolo[4,3-a]azepin-3-one]",–,72,23
